According to patent US20220112175A1, “PYRIDAZINES HERBICIDAL COMPOUNDS” (SYNGENTA CROP PROTECTION AG, priority 2019, published 2022):

Legend:
Assay in all cases: Post-emergence efficacy, glasshouse pot test
Type in all cases: in vivo
[1] = tested on: Amaranthus palmeri (AMAPA); conditions: 312 h, Application rate 500 g/Ha, post-emergence spray, evaluated after 13 days, read-out: Post-emergence efficacy AMAPA (100=total damage to plant; 0=no damage to plant)
Procedure: (§1) Seeds of a variety of test species were sown in standard soil in pots. After cultivation for 14 days (post-emergence) under controlled conditions in a glasshouse (at 24/16° C., day/night; 14 hours light; 65% humidity), the plants were sprayed with an aqueous spray solution derived from the dissolution of the technical active ingredient formula (I) in a small amount of acetone and a special solvent and emulsifier mixture referred to as IF50 (11.12% Emulsogen EL360 TM+44.44% N-methylpyrrolidone+44.44% Dowanol DPM glycol ether), to create a 50 g/l solution which was then diluted to required concentration using 0.25% or 1% Empicol ESC70 (Sodium lauryl ether sulphate)+1% ammonium sulphate as diluent.
(§2) The test plants were then grown in a glasshouse under controlled conditions (at 24/16° C., day/night; 14 hours light; 65% humidity) and watered twice daily. After 13 days the test was evaluated (100=total damage to plant; 0=no damage to plant).
(§3) Ipomoea hederacea (IPOHE), Euphorbia heterophylla (EPHHL), Chenopodium album (CHEAL), Amaranthus palmeri (AMAPA), Lolium perenne (LOLPE), Digitaria sanguinalis (DIGSA), Eleusine indica (ELEIN), Echinochloa crus-galli (ECHCG), Setaria faberi (SETFA)

[2] = tested on: Chenopodium album (CHEAL); conditions: 312 h, Application rate 500 g/Ha, post-emergence spray, evaluated after 13 days, read-out: Post-emergence efficacy CHEAL (100=total damage to plant; 0=no damage to plant)
Procedure: as §1, §2, §3

[3] = tested on: Digitaria sanguinalis (DIGSA); conditions: 312 h, Application rate 500 g/Ha, post-emergence spray, evaluated after 13 days, read-out: Post-emergence efficacy DIGSA (100=total damage to plant; 0=no damage to plant)
Procedure: as §1, §2, §3

[4] = tested on: Echinochloa crus-galli (ECHCG); conditions: 312 h, Application rate 500 g/Ha, post-emergence spray, evaluated after 13 days, read-out: Post-emergence efficacy ECHCG (100=total damage to plant; 0=no damage to plant)
Procedure: as §1, §2, §3

Eleusine indica (ELEIN) = conditions: 312 h, Application rate 500 g/Ha, post-emergence spray, evaluated after 13 days, read-out: Post-emergence efficacy ELEIN (100=total damage to plant; 0=no damage to plant)
Procedure: as §1, §2, §3

[5] = tested on: Euphorbia heterophylla (EPHHL); conditions: 312 h, Application rate 500 g/Ha, post-emergence spray, evaluated after 13 days, read-out: Post-emergence efficacy EPHHL (100=total damage to plant; 0=no damage to plant)
Procedure: as §1, §2, §3

[6] = tested on: Ipomoea hederacea (IPOHE); conditions: 312 h, Application rate 500 g/Ha, post-emergence spray, evaluated after 13 days, read-out: Post-emergence efficacy IPOHE (100=total damage to plant; 0=no damage to plant)
Procedure: as §1, §2, §3

Lolium perenne (LOLPE) = conditions: 312 h, Application rate 500 g/Ha, post-emergence spray, evaluated after 13 days, read-out: Post-emergence efficacy LOLPE (100=total damage to plant; 0=no damage to plant)
Procedure: as §1, §2, §3

Setaria faberi (SETFA) = conditions: 312 h, Application rate 500 g/Ha, post-emergence spray, evaluated after 13 days, read-out: Post-emergence efficacy SETFA (100=total damage to plant; 0=no damage to plant)
Procedure: as §1, §2, §3

## CC(C)(NS(=O)(=O)CC[n+]1ccc(-c2nccs2)cn1)C(=O)O [Compound A18]
[1]
  pest or weed control at 500 g/ha: 30%
[2]
  pest or weed control at 500 g/ha: 50%
[3]
  pest or weed control at 500 g/ha: 0%
[4]
  pest or weed control at 500 g/ha: 10%
Eleusine indica (ELEIN)
  pest or weed control at 500 g/ha: 0%
[5]
  pest or weed control at 500 g/ha: 10%
[6]
  pest or weed control at 500 g/ha: 0%
Lolium perenne (LOLPE)
  pest or weed control at 500 g/ha: 0%
Setaria faberi (SETFA)
  pest or weed control at 500 g/ha: 20%

## CC(NC(=O)C[n+]1ccc(-c2ncsn2)cn1)C(=O)O (stereo not drawn) [Compound A19]
[1]
  pest or weed control at 500 g/ha: 100%
[2]
  pest or weed control at 500 g/ha: 90%
[3]
  pest or weed control at 500 g/ha: 80%
[4]
  pest or weed control at 500 g/ha: 80%
Eleusine indica (ELEIN)
  pest or weed control at 500 g/ha: 80%
[5]
  pest or weed control at 500 g/ha: 90%
[6]
  pest or weed control at 500 g/ha: 50%
Lolium perenne (LOLPE)
  pest or weed control at 500 g/ha: 40%
Setaria faberi (SETFA)
  pest or weed control at 500 g/ha: 90%

## CC(NC(=O)CC[n+]1ccc(-c2ncsn2)cn1)C(=O)O (stereo not drawn) [Compound A20]
[1]
  pest or weed control at 500 g/ha: 100%
[2]
  pest or weed control at 500 g/ha: 100%
[3]
  pest or weed control at 500 g/ha: 100%
[4]
  pest or weed control at 500 g/ha: 100%
Eleusine indica (ELEIN)
  pest or weed control at 500 g/ha: 90%
[5]
  pest or weed control at 500 g/ha: 80%
[6]
  pest or weed control at 500 g/ha: 60%
Lolium perenne (LOLPE)
  pest or weed control at 500 g/ha: 90%
Setaria faberi (SETFA)
  pest or weed control at 500 g/ha: 100%

## CC(C)(NC(=O)C[n+]1ccc(-c2ncsn2)cn1)C(=O)O [Compound A21]
[1]
  pest or weed control at 500 g/ha: 100%
[2]
  pest or weed control at 500 g/ha: 90%
[3]
  pest or weed control at 500 g/ha: 30%
[4]
  pest or weed control at 500 g/ha: 30%
Eleusine indica (ELEIN)
  pest or weed control at 500 g/ha: 40%
[5]
  pest or weed control at 500 g/ha: 80%
[6]
  pest or weed control at 500 g/ha: 70%
Lolium perenne (LOLPE)
  pest or weed control at 500 g/ha: 40%
Setaria faberi (SETFA)
  pest or weed control at 500 g/ha: 100%

## CC(NS(=O)(=O)CC[n+]1ccc(-c2ncsn2)cn1)C(=O)O (stereo not drawn) [Compound A22]
[1]
  pest or weed control at 500 g/ha: 100%
[2]
  pest or weed control at 500 g/ha: 50%
[3]
  pest or weed control at 500 g/ha: 100%
[4]
  pest or weed control at 500 g/ha: 80%
Eleusine indica (ELEIN)
  pest or weed control at 500 g/ha: 100%
[5]
  pest or weed control at 500 g/ha: 20%
[6]
  pest or weed control at 500 g/ha: 50%
Lolium perenne (LOLPE)
  pest or weed control at 500 g/ha: 60%
Setaria faberi (SETFA)
  pest or weed control at 500 g/ha: 100%

## O=C(O)CNC(=O)C[n+]1ccc(-c2ncsn2)cn1 [Compound A23]
[1]
  pest or weed control at 500 g/ha: 100%
[2]
  pest or weed control at 500 g/ha: 100%
[3]
  pest or weed control at 500 g/ha: 40%
[4]
  pest or weed control at 500 g/ha: 50%
Eleusine indica (ELEIN)
  pest or weed control at 500 g/ha: 70%
[5]
  pest or weed control at 500 g/ha: 90%
[6]
  pest or weed control at 500 g/ha: 90%
Lolium perenne (LOLPE)
  pest or weed control at 500 g/ha: 50%
Setaria faberi (SETFA)
  pest or weed control at 500 g/ha: 80%

## O=C(C[n+]1ccc(-c2ncsn2)cn1)NC1(C(=O)O)CC1 [Compound A24]
[1]
  pest or weed control at 500 g/ha: 100%
[2]
  pest or weed control at 500 g/ha: 90%
[3]
  pest or weed control at 500 g/ha: 100%
[4]
  pest or weed control at 500 g/ha: 80%
Eleusine indica (ELEIN)
  pest or weed control at 500 g/ha: 70%
[5]
  pest or weed control at 500 g/ha: 90%
[6]
  pest or weed control at 500 g/ha: 90%
Lolium perenne (LOLPE)
  pest or weed control at 500 g/ha: 50%
Setaria faberi (SETFA)
  pest or weed control at 500 g/ha: 80%
